According to paper PMC3940307 (ACS medicinal chemistry letters, 2013):
pEC50: −log10 of the molar value. Entries after “also recorded” stand apart in the source; their conditions may differ.

Experiments:
NTR1 [1] = target: T1, NTR1 (Homo sapiens, UniProt P30989); assay: NTR1 Ca2+ Flux assay; format: cell-based
[2] = test system: GPR55, APJ, k-opiod, CCR6, and CXCR6; assay: Functional high content or β-arrestin based GPCR screens; format: cell-based; settings: result in words
NTR1 [3] = target: T1, NTR1; assay: NTR1 HCS primary assay; format: cell-based; settings: for loss in potency compared to 32: NTR1 HCS EC50 relative to compound 32
[4] = test system: adrenergic receptors (α1a, α1B, α1D, α2A); assay: Panlabs/Ricerca lead profiling panel; format: binding; settings: at 10 μM, range across α1a
[5] = test system: Fa2N-4 Immortalized Human Hepatocytes; assay: Toxicity towards hepatocytes; format: cell-based; settings: LC50 towards human hepatocytes versus NTR1 potency
[6] = NTR1 HCS EC50 relative to compound 5

T1 sequence (P30989 whole entry): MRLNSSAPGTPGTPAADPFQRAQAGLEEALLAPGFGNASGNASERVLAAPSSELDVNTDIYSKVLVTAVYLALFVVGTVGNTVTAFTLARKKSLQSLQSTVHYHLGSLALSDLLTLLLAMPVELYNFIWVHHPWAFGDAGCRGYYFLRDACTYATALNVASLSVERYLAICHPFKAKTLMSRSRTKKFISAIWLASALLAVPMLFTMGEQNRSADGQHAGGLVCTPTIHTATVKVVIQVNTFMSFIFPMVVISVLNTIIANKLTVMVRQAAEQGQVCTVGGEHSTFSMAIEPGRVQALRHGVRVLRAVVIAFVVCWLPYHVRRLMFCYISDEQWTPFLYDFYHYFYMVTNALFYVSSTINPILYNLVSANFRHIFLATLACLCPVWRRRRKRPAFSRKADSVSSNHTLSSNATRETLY

COc1cc2nc(C3CC3)nc(N3CCN(c4ccccc4OC)CC3)c2cc1OC [Compound 32, 2-cyclopropyl-6,7-dimethoxy-4-(4-(2-methoxyphenyl)-piperazin-1-yl)quinazoline]
response in Ca2+ mobilization / flux assay (NTR1 [1]; result in words): no significant response; also recorded: no significant activity | cross reactivity [2]: no cross reactivity | improvement in activity over 5 (NTR1 [3]; [6]): 3 fold | binding [4]: 63-100% | window for toxicity [5]: > 15 fold

COc1ccccc1N1CCN(c2nc(C3CCC3)nc3ccccc23)CC1 [Compound 39]
loss of potency compared to 5 (NTR1 [3]; [6]): 4-6 fold

COc1cccc(OC)c1-c1cc(C(=O)N[C@@H](CC(C)C)C(=O)O)nn1-c1ccnc2cc(Cl)ccc12 [Compound 2, reference compound]
pEC50 (NTR1 [1]; NTR1 Ca2+ flux assay): > 6.81

COc1ccccc1N1CCN(c2nc(C3CCC3)nc3cc4c(cc23)OCO4)CC1 [Compound 40]
loss of potency compared to 5 (NTR1 [3]; [6]): over 6 fold

CCOc1cc2c(N3CCN(c4ccccc4[N+](=O)[O-])CC3)nc(-c3ccccc3)nc2cc1OC [Compound 19]
loss of potency compared to 5 (NTR1 [3]; [6]): > 6 fold

CCOc1ccccc1N1CCN(c2nc(C3CC3)nc3cc(OC)c(OC)cc23)CC1 [Compound 42]
loss in potency compared to 32 (NTR1 [3]): 3-10 fold

COc1cc2nc(C3CCC3)nc(N3CCN(c4ccccn4)CC3)c2cc1OC [Compound 18]
loss of potency compared to 5 (NTR1 [3]; [6]): > 6 fold

COc1ccc2c(N3CCN(c4ccccc4OC)CC3)nc(C3CCC3)nc2c1 [Compound 38]
loss of potency compared to 5 (NTR1 [3]; [6]): 4-6 fold

COc1cc2nc(C3CC3)nc(N3CCN(c4ccccc4Cl)CC3)c2cc1OC [Compound 43]
loss in potency compared to 32 (NTR1 [3]): 3-10 fold
